# Columns and labels:
# [1] = Stability in solution in aqueous buffers (HPLC/UV); format: physicochemical; conditions: for Increase of the area of the impurities in percent: 24 hours at 37° C.
# Method: The stability of dissolved compound I and of dissolved C1 was determined in aqueous buffers in the pH range 1.2-8.0. 1 mg of the compound in question was weighed into a 5 ml measuring flask. A small amount of acetonitrile was used to dissolve the substance. The flask was then filled up to the mark with the aqueous buffer. The precipitated compound was centrifuged and the clear supernatant was then tested for stability in solution for 24 hours at 37° C. The samples were evaluated using HPLC/UV.
# [2] = Solubility in aqueous buffers, FaSSIF and FeSSIF (HPLC/UV); format: physicochemical; conditions: for solubility at 4 h: 25 °C, thermodynamic from solid
# Method: FaSSIF (fasted State Simulating Intestinal Fluid) and FeSSIF (Fed State Simulating Intestinal Fluid) media which reflect the pH/solubilization conditions in the upper small intestine in the pre- and postprandial state, respectively, were used to test this improved solubility.
# 0.5 mg of the compound to be tested was weighed exactly into an Eppendorf cap, and 0.5 ml of the solvent in question (aqueous buffer) was added. The Eppendorf cap was then introduced into a thermomixer and, at 25° C., shaken at 1 400 rpm for 4 hours.
# The Eppendorf cap was then introduced into a centrifuge. Following centrifugation, an aliquot of the supernatant was used to determine the amount dissolved, using HPLC/UV analysis.
# [3] = tested on: cholesterol absorption (uptake of 14C-cholesterol by the liver); assay: Cholesterol absorption test: uptake of 14C-cholesterol by the liver; format: in vivo, NMRI mice; conditions: dose at which uptake of 14C-cholesterol by the liver is halved vs control group; mouse, peroral
# [4] = FaSSIF, repetition of the tests
# [5] = FeSSIF, repetition of the tests
# [6] = aqueous buffer, pH 1.2, simulated gastric fluid, pH 1.2 aqueous buffer, 4 hours
# [7] = aqueous buffer, pH 4.5, aqueous buffer, 4 hours
# [8] = aqueous buffer, pH 6.8, aqueous buffer, 4 hours
# [9] = aqueous buffer, pH 8, aqueous buffer, 4 hours
# [10] = based on an available volume of 250 ml (Biopharmaceutical Classification System), best case
"soluble dose ([2]; based on an available volume of 250 ml, worst case) [mg]",SMILES,Increase of the area of the impurities in percent ([1]; pH 1.2) [%],Increase of the area of the impurities in percent ([1]; pH 6.8) [%],Increase of the area of the impurities in percent ([1]; pH 8.0) [%],"solubility at 4 h ([2]; FaSSIF, 4 hours) [µg/mL]","solubility at 4 h [2, 4] [µg/mL]","solubility at 4 h ([2]; FeSSIF, 4 hours) [µg/mL]","solubility at 4 h [2, 5] [µg/mL]","solubility at 4 h [2, 6] [µg/mL]","solubility at 4 h [2, 7] [µg/mL]","solubility at 4 h [2, 8] [µg/mL]","solubility at 4 h [2, 9] [µg/mL]","soluble dose [2, 10] [mg]","solubility at 4 h ([2]; water, shaken 4 hours) [µg/mL]",ED50 (liver) [3] [mg/mouse],"times more stable than C1 ([1]; depending on the pH, relative to C1)","pH of the water sample (Water (pH)) ([2]; Water, 25° C., shaken 4 hours)"
1.25,"COc1ccc([C@@H]2[C@@H](CC[C@H](O)c3ccc(F)cc3)C(=O)N2c2ccc(CNC(=O)CCCCCCCCCCCNC(=O)[C@H](O)[C@@H](O)[C@H](O)[C@H](O)CO)cc2)cc1 [Example C1, reference compound]",13.3,0.5,4.6,5,6,18,20,< 1,< 1,< 1,< 1,~5,< 1,,,
,"COc1ccc([C@@H]2[C@@H](CC[C@H](O)c3ccc(F)cc3)C(=O)N2c2ccc(CNC(=O)CCCCCCCCCCC(=O)NC[C@H](O)[C@@H](O)[C@H](O)[C@H](O)CO)cc2)cc1 [Example I, dodecanedioic acid 4-[(2S,3R)-3-[(S)-3-(4-fluorophenyl)-3-hydroxypropyl]-2-(4-methoxyphenyl)-4-oxoazetidin-1-yl]benzylamide ((2S,3R,4R,5R)-2,3,4,5,6-pentahydroxyhexyl)amide]",4.9,0,0.2,28,43,454,290,3,4,2,2,~100,3,0.005,at least 2.7 times,6.8
